Strand notation (5' to 3'): a small letter for the sugar, then the base; units joined by * are phosphorothioate-linked, units joined directly phosphodiester-linked; [ ] holds rarer units or linkages, { } end groups; capitals alone tell only the bases. e = 2'-O-(2-methoxyethyl) (MOE); k = constrained ethyl (cEt); [5mC] = 5-methylcytosine; d = 2'-deoxy (DNA); m = 2'-O-methyl
What follows are substances tested on Yap1 mRNA (assay: Antisense inhibition of human Yap1 in SNU-449 cells by modified oligonucleotides, single dose (Example 5, RTS36584)). Conditions: Table 39; SNU-449 cells, 10,000 cells per well, free uptake, 2,000 nM oligonucleotide, approx. 48 hours; RTS36584; normalized to RIBOGREEN; Yap1 mRNA relative to untreated control.
Type: cell-based
In short: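 SNU-449 cells (10,000/well) took up 2,000 nM oligonucleotide by free uptake for about 48 h. Yap1 mRNA was measured by qRT-PCR with primer probe set RTS36584 and normalised to RIBOGREEN total RNA. Values are % of untreated control; asterisked oligos target the amplicon region.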

Substance | YAP1 (% UTC)
1198423 (kT*d[5mC]*dT*dT*dA*dT*dA*dT*dG*dG*dT*kT*eT*kT*eG*kT) [Compound 1198423] | 10

Same assay, conditions: Table 40 (separate experiment); SNU-449 cells, 10,000 cells per well, free uptake, 2,000 nM oligonucleotide, approx. 48 hours; RTS36584; normalized to RIBOGREEN; Yap1 mRNA relative to untreated control

Substance | YAP1 (% UTC)
1198745 (k[5mC]*eA*k[5mC]*dT*dT*dT*dT*dA*d[5mC]*dA*dT*dT*eA*eG*kG*kA; antisense) [Compound 1198745] | 57
1198801 (antisense kG*eA*k[5mC]*dT*dA*dA*dG*dT*dA*dA*dG*dG*eT*eT*kT*k[5mC]) [Compound 1198801] | 47
1198729 (kA*eT*kA*dT*dT*dA*dG*dA*dG*dT*dA*dT*eG*eT*kG*kG; antisense) [Compound 1198729] | 21

Same assay, conditions: Table 41; SNU-449 cells, 10,000 cells per well, free uptake, 2,000 nM modified oligonucleotide, approximately 48 hours; RTS36584; normalized to RIBOGREEN; Yap1 mRNA relative to untreated control cells

Substance | YAP1 (% UTC)
1198675 (antisense k[5mC]*kA*dG*dA*dT*dT*dT*dA*dG*dG*dA*dT*kG*e[5mC]*kA*eT) [Compound 1198675] | 35
1198633 (kG*kG*dA*dA*dA*dT*dT*dG*dT*d[5mC]*dT*d[5mC]*kA*eT*kG*e[5mC]; antisense) [Compound 1198633] | 46

Same assay, conditions: Table 42 (separate experiment); SNU-449 cells, 10,000 cells per well, free uptake, 2,000 nM modified oligonucleotide, approximately 48 hours; RTS36584; normalized to RIBOGREEN; Yap1 mRNA relative to untreated control cells

Substance | YAP1 (% UTC)
1198215 (kT*k[5mC]*dT*dA*dT*dA*dT*dT*dA*dG*dA*eG*eT*eA*kT*kG; antisense) [Compound 1198215] | 120
1198695 (antisense kT*kT*dT*dA*dT*dG*dT*dA*dA*dT*dA*dT*kT*eG*k[5mC]*eA) [Compound 1198695] | 75
1198235 (kT*kG*d[5mC]*dT*dT*dT*dG*dG*dA*dA*dG*eA*eT*e[5mC]*kT*kG) [Compound 1198235] | 49
1198648 (kA*kG*dG*dT*dA*dT*dA*dA*d[5mC]*dT*dG*dG*kG*e[5mC]*kA*eA) [Compound 1198648] | 43
1198213 (kA*kT*dA*dT*dT*dA*dG*dA*dG*dT*dA*eT*eG*eT*kG*kG; antisense) [Compound 1198213] | 16

Same assay, conditions: Table 43 experiment; SNU-449 cells, 10,000 cells per well, free uptake, 2,000 nM, approximately 48 hours; RTS36584; Yap1 mRNA normalized to RIBOGREEN, relative to untreated control cells

Substance | YAP1 (% UTC)
1198217 (kG*kG*dT*dA*dT*dA*dA*d[5mC]*dT*dG*dG*eG*e[5mC]*eA*kA*kA; antisense) [Compound 1198217] | 57
1198249 (kT*kT*dA*dT*dA*dT*dG*dG*dT*dT*dT*eT*eG*eT*kG*kT; antisense) [Compound 1198249] | 42
1198273 (k[5mC]*kT*dT*dT*dA*dA*dA*dG*dT*dG*dT*eA*eT*eG*kT*k[5mC]; antisense) [Compound 1198273] | 52
1198251 (kT*k[5mC]*dT*dT*dA*dT*dA*dT*dG*dG*dT*eT*eT*eT*kG*kT; antisense) [Compound 1198251] | 83
1198279 (k[5mC]*kT*dA*dA*dG*dT*dA*dA*dG*dG*dT*eT*eT*e[5mC]*k[5mC]*k[5mC]; antisense) [Compound 1198279] | 43

Same assay, conditions: Table 44 experiment; SNU-449 cells, 10,000 cells per well, free uptake, 2,000 nM, approximately 48 hours; RTS36584; Yap1 mRNA normalized to RIBOGREEN, relative to untreated control cells

Substance | YAP1 (% UTC)
1198526 (kA*kA*dG*dT*dG*dT*dA*dT*dG*dT*d[5mC]*eA*kG*eA*kA*eG; antisense) [Compound 1198526] | 2
1198478 (antisense kA*kA*d[5mC]*dA*d[5mC]*dT*dG*dA*dG*dG*dT*eA*kT*eA*kA*e[5mC]) [Compound 1198478] | 60
1198903 (kA*kT*dT*dA*dG*dA*dG*dT*dA*dT*dG*kT*dG*kG*d[5mC]*kA; antisense) [Compound 1198903] | 24
1198534 (kA*kG*dT*dA*dA*dG*dG*dT*dT*dT*d[5mC]*e[5mC]*k[5mC]*eA*kG*eA; antisense) [Compound 1198534] | 30
1198906 (kT*kA*dT*dA*dT*dT*dA*dG*dA*dG*dT*kA*dT*kG*dT*kG; antisense) [Compound 1198906] | 56
1198477 (antisense kG*kA*dG*dG*dT*dA*dT*dA*dA*d[5mC]*dT*eG*kG*eG*k[5mC]*eA) [Compound 1198477] | 47
1198536 (kT*kA*dA*dG*dT*dA*dA*dG*dG*dT*dT*eT*k[5mC]*e[5mC]*k[5mC]*eA; antisense) [Compound 1198536] | 20
1198512 (kA*kA*d[5mC]*dT*d[5mC]*dT*dT*dA*dT*dA*dT*eG*kG*eT*kT*eT; antisense) [Compound 1198512] | 62

Same assay, conditions: Table 45; Yap1 mRNA as percent of untreated control, SNU-449 cells, single dose

Substance | YAP1 (% UTC)
1095511 (antisense k[5mC]*kA*d[5mC]*dT*dG*dA*dG*dG*dT*dA*dT*kA*dA*k[5mC]*dT*kG) [Compound 1095511] | 46

Same assay, conditions: Table 46; Yap1 mRNA as percent of untreated control, SNU-449 cells, single dose

Substance | YAP1 (% UT)
1198881 (kT*kA*dA*dG*dG*dT*dT*dT*d[5mC]*d[5mC]*d[5mC]*kA*eG*kA*eT*kT; antisense) [Compound 1198881] | 36
1198852 (kT*k[5mC]*dA*dG*dA*dT*dT*dT*dA*dG*dG*kA*eT*kG*e[5mC]*kA; antisense) [Compound 1198852] | 41
1198822 (kT*kA*dT*dA*dA*d[5mC]*dT*dG*dG*dG*d[5mC]*kA*eA*kA*eT*kT; antisense) [Compound 1198822] | 97

Same assay, conditions: Table 48; Yap1 mRNA level relative to untreated control; modified oligonucleotides targeting SEQ ID NO.: 1 and 2

Substance | YAP1 (% UT)
1197213 (antisense kT*kG*kT*dA*dT*dG*dT*d[5mC]*dA*dG*dA*dA*dG*kA*kG*kT) [Compound 1197213] | 5
1198320 (kG*k[5mC]*kT*dT*dT*dG*dG*dA*dA*dG*dA*dT*k[5mC]*eT*kG*eA; antisense) [Compound 1198320] | 26
1097247 (antisense kT*kA*kA*dA*dG*dT*dG*dT*dA*dT*dG*dT*d[5mC]*kA*kG*kA) [Compound 1097247] | 9
1198332 (kT*k[5mC]*kA*dG*dA*dT*dT*dT*dA*dG*dG*dA*kT*eG*k[5mC]*eA; antisense) [Compound 1198332] | 58

Same assay, conditions: Table 49; Yap1 mRNA level relative to untreated control; modified oligonucleotides targeting SEQ ID NO.: 1 and 2

Substance | YAP1 (% UT)
1198553 (antisense kT*kA*kG*dA*dG*dT*dA*dT*dG*dT*dG*dG*k[5mC]*kA*kA*eT) [Compound 1198553] | 13
1198353 (kA*kG*kT*dG*dT*dA*dT*dG*dT*d[5mC]*dA*dG*kA*eA*kG*eA; antisense) [Compound 1198353] | 8
1198302 (kT*kA*kT*dA*dA*d[5mC]*dT*dG*dG*dG*d[5mC]*dA*kA*eA*kT*eT; antisense) [Compound 1198302] | 67

Same assay, conditions: Table 50; Yap1 mRNA remaining as percent of untreated control (UT), SNU-449 cells, single dose

Substance | YAP1 (% UT)
1198617 (antisense k[5mC]*kT*kT*dT*dA*dA*dA*dG*dT*dG*dT*dA*kT*kG*kT*e[5mC]) [Compound 1198617] | 34
1198606 (antisense kT*kG*kT*dA*dA*dT*dA*dT*dT*dG*d[5mC]*dA*kA*kT*k[5mC]*eT) [Compound 1198606] | 25
1197245 (antisense kT*kT*kT*dT*mA*d[5mC]*dA*dT*dT*dA*dG*dG*dA*kA*k[5mC]*kA) [Compound 1197245] | 60
1197284 (kA*kG*kT*dA*mU*dG*dT*dG*dG*d[5mC]*dA*dA*dT*kA*kA*kT; antisense) [Compound 1197284] | 35

Same assay, conditions: Table 51; Yap1 mRNA remaining as percent of untreated control (UT), SNU-449 cells, single dose

Substance | YAP1 (% UT)
1197266 (kT*kG*kT*dA*mA*dT*dA*dT*dT*dG*d[5mC]*dA*dA*kT*k[5mC]*kT) [Compound 1197266] | 31
1197269 (kT*kA*kA*dA*mG*dT*dG*dT*dA*dT*dG*dT*d[5mC]*kA*kG*kA) [Compound 1197269] | 3
1197240 (antisense k[5mC]*kT*kG*dA*mG*dG*dT*dA*dT*dA*dA*d[5mC]*dT*kG*kG*kG) [Compound 1197240] | 58

Same assay, conditions: Table 52; Yap1 mRNA, modified oligonucleotides targeting SEQ ID NO: 1 and 2

Substance | YAP1 (% UT)
1200788 (kG*kA*kA*dA*dT*mU*dG*dT*d[5mC]*dT*d[5mC]*dA*dT*kG*k[5mC]*k[5mC]; antisense) [Compound 1200788] | 19
1200856 (kT*kG*kT*dA*dT*mG*dT*d[5mC]*dA*dG*dA*dA*dG*kA*kG*kT; antisense) [Compound 1200856] | 29
1200802 (TATAACTGGGCAAATT; cEt gapmer, phosphorothioate, 5-methylcytosine, chemistry not fully specified) [Compound 1200802] | 89
1200846 (kG*kA*k[5mC]*dA*dA*mC*dT*d[5mC]*dT*dT*dA*dT*dA*kT*kG*kG; antisense) [Compound 1200846] | 38
1200823 (k[5mC]*kT*kT*dT*dG*mG*dA*dA*dG*dA*dT*d[5mC]*dT*kG*kA*kA; antisense) [Compound 1200823] | 46
1200871 (kG*kA*k[5mC]*dT*dA*mA*dG*dT*dA*dA*dG*dG*dT*kT*kT*k[5mC]; antisense) [Compound 1200871] | 65

Same assay, conditions: Yap1 mRNA, percent of untreated control; modified oligonucleotides targeting SEQ ID NO: 1 and 2; Table 47

Substance | YAP1 (% UT)
1074798 (kG*k[5mC]*kT*dT*dT*dG*dG*dA*dA*dG*dA*dT*d[5mC]*kT*kG*kA) [Compound 1074798] | 19

Source: patent US11214803B2, “Modulators of YAP1 expression” (Ionis Pharmaceuticals, Inc., priority 2019, dated 2022)
